assay: recombinant barcode read abundance after kanamycin selection (control-corrected) (log10(CPM+1)); higher = more efficient recombination; sequences stand for … in AGTGCAGAGAAAATCGGCCAGTTTTCTCTGCCTGCAGTCCGCATGCCGT…AGATTTATGCAGCGGACTGCCTTTCTCCCAAAGTGATAAACCGGACAGTATCATGGACCGGTTTTCCCGGTAATCCGTATTTGCAAGGTTGGTTTCACT; site = the 11-nt target
How it was run: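 Targets were screened in pooled form in E. coli against IS621 bridge RNA target-binding loops. Recombination efficiency is based on barcode counts at recombinant junctions in counts per million, averaged and corrected for the control. Numbers are shown as log10(CPM+1), with duplicate plates on chloramphenicol/ampicillin LB agar (control) or chloramphenicol/ampicillin/kanamycin with 0.1 mM IPTG.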
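Note: IS621 recombinase and bridge RNA in Escherichia coli cells.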

“TCCGCTACTTGGGTTCTAACCTGTTGCCT (site TCCGCTGCTAG)” and “TCCGCTACTTGGGTTCTAACCTGTTGCCT (site TCCGCTTCTAG)” are within 0.2 log units of each other in “recombinant barcode read abundance (log10)” value: 0.0537 for the first, 0.107 for the second.

“TCCGCTTCTTGGGTTCTAACCTGTTGCCT (site TCCGCTACTAG)” and “TCCGCTTCTTGGGTTCTAACCTGTTGCCT (site TCCGCTCCTAG)” are within 0.2 log units of each other in “recombinant barcode read abundance (log10)” value: 0.321 for the first, 0.259 for the second.

Compared with “TCCGCTTCTTGGGTTCTAACCTGTTGCCT (site TCCGCTGCTAG)”, “TCCGCTTCTTGGGTTCTAACCTGTTGCCT (site TCCGCTTCTAG)” is higher in “recombinant barcode read abundance (log10)” value: 0.0858 for the first, 0.487 for the second.

“TCCGCTTCTTGGGTTCTAACCTGTTGCTT (site AATCGAGCTCC)” and “TCCGCTTCTTGGGTTCTAACCTGTTGCTT (site TCCGCTTCTAA)” are within 0.2 log units of each other in “recombinant barcode read abundance (log10)” value: 0.0408 for the first, 0.0659 for the second.

Going from “TCCGGTACTTGGGTTCTAACCTGTTGCTT (site TCCAGTACTAA)” to “TCCGGTACTTGGGTTCTAACCTGTTGCTT (site TCCGGTACTAA)”, the “recombinant barcode read abundance (log10)” value rises from 0.0783 to 0.438.

Compared with “TCCTAACCTTGGGTTCTAACCTGTTGCCT (site TCCTAACCTAG)”, “TCCTAACCTTGGGTTCTAACCTGTTGCCT (site TCCTAATCTAT)” is lower in “recombinant barcode read abundance (log10)” value: 0.454 for the first, 0.0117 for the second.

Compared with “TCCTAAGCTTGGGTTCTAACCTGTTGCGG (site TCCTAAGCTCC)”, “TCCTAAGCTTGGGTTCTAACCTGTTGCGG (site TGCTAAGCTCA)” is lower in “recombinant barcode read abundance (log10)” value: 1.67 for the first, 0.276 for the second.

“TCCTAAGCTTGGGTTCTAACCTGTTGCTA (site TCCAAAGCTTA)” and “TCCTAAGCTTGGGTTCTAACCTGTTGCTA (site TCCCAAGCTTA)” are within 0.2 log units of each other in “recombinant barcode read abundance (log10)” value: 0.05 for the first, 0.227 for the second.

Going from “TCCTAAGCTTGGGTTCTAACCTGTTGCTA (site TCCGAAGCTTA)” to “TCCTAAGCTTGGGTTCTAACCTGTTGCTA (site TCCTAAGCTTA)”, the “recombinant barcode read abundance (log10)” value falls from 0.372 to 0.161.

“TCCTAATCTTGGGTTCTAACCTGTTGCTT (site CGGGCTACTTG)” and “TCCTAATCTTGGGTTCTAACCTGTTGCTT (site TCCTAATCTAA)” are within 0.2 log units of each other in “recombinant barcode read abundance (log10)” value: 0.284 for the first, 0.111 for the second.

First: TCCTATCCTTGGGTTCTAACCTGTTGCGA (site GTGGGAACTAA)
Second: TCCTATCCTTGGGTTCTAACCTGTTGCGA (site TCCTATCCTTC)
The “recombinant barcode read abundance (log10)” value of the first is lower: 0.0465 for the first, 0.513 for the second.

Compared with “TCCTATGCTTGGGTTCTAACCTGTTGCCG (site GAAAGCTCTAC)”, “TCCTATGCTTGGGTTCTAACCTGTTGCCG (site TCCTATGCTCG)” is higher in “recombinant barcode read abundance (log10)” value: 0.0567 for the first, 0.444 for the second.

First: TCCTCGTCTTGGGTTCTAACCTGTTGCCT (site GCCTGGTCTAG)
Second: TCCTCGTCTTGGGTTCTAACCTGTTGCCT (site TCCTCGTCTAG)
The “recombinant barcode read abundance (log10)” value of the first is lower: 0.00881 for the first, 0.669 for the second.

“TCCTGTACTTGGGTTCTAACCTGTTGCCT (site TCCTGTACTAG)” and “TCCTGTACTTGGGTTCTAACCTGTTGCCT (site TCCTGTCCTAT)” are within 0.2 log units of each other in “recombinant barcode read abundance (log10)” value: 0.239 for the first, 0.108 for the second.

“TCCTTAGCTTGGGTTCTAACCTGTTGCCG (site TCCTGAGCTCA)” and “TCCTTAGCTTGGGTTCTAACCTGTTGCCG (site TCCTTAGCTCG)” are within 0.2 log units of each other in “recombinant barcode read abundance (log10)” value: 0.155 for the first, 0.0503 for the second.

Going from “TCGAACCCTTGGGTTCTAACCTGTTGCGG (site TCAAACCCTCC)” to “TCGAACCCTTGGGTTCTAACCTGTTGCGG (site TCCAACCCTCC)”, the “recombinant barcode read abundance (log10)” value falls from 0.991 to 0.168.

Going from “TCGAACCCTTGGGTTCTAACCTGTTGCGG (site TCGAACCCTCC)” to “TCGAACCCTTGGGTTCTAACCTGTTGCGG (site TCTAACCCTCC)”, the “recombinant barcode read abundance (log10)” value falls from 0.851 to 0.0521.

“TCGAAGCCTTGGGTTCTAACCTGTTGCCT (site TCGAAACCTAG)” and “TCGAAGCCTTGGGTTCTAACCTGTTGCCT (site TCGAACCCTAG)” are within 0.2 log units of each other in “recombinant barcode read abundance (log10)” value: 0.0823 for the first, 0.207 for the second.

Compared with “TCGAAGCCTTGGGTTCTAACCTGTTGCCT (site TCGAAGCCTAG)”, “TCGAAGCCTTGGGTTCTAACCTGTTGCCT (site TCGAATCCTAG)” is lower in “recombinant barcode read abundance (log10)” value: 0.324 for the first, 0.101 for the second.

“TCGAATTCTTGGGTTCTAACCTGTTGCCT (site TCGAATTCTAG)” and “TCGAATTCTTGGGTTCTAACCTGTTGCCT (site TCGATGTCTAG)” are within 0.2 log units of each other in “recombinant barcode read abundance (log10)” value: 0.109 for the first, 0.0943 for the second.

Compared with “TCGAGAGCTTGGGTTCTAACCTGTTGCCG (site TCGAGAGCTCG)”, “TCGAGAGCTTGGGTTCTAACCTGTTGCCG (site TCGAGAGCTTA)” is lower in “recombinant barcode read abundance (log10)” value: 0.441 for the first, 0.203 for the second.

Compared with “TCGAGTCCTTGGGTTCTAACCTGTTGCCT (site TCGAGTACTAG)”, “TCGAGTCCTTGGGTTCTAACCTGTTGCCT (site TCGAGTCCTAG)” is lower in “recombinant barcode read abundance (log10)” value: 0.766 for the first, 0.101 for the second.

“TCGAGTCCTTGGGTTCTAACCTGTTGCCT (site TCGAGTGCTAG)” and “TCGAGTCCTTGGGTTCTAACCTGTTGCCT (site TCGAGTTCTAG)” are within 0.2 log units of each other in “recombinant barcode read abundance (log10)” value: 0.179 for the first, 0.0383 for the second.

“TCGAGTTCTTGGGTTCTAACCTGTTGCCT (site TCGAGTACTAG)” and “TCGAGTTCTTGGGTTCTAACCTGTTGCCT (site TCGAGTCCTAG)” are within 0.2 log units of each other in “recombinant barcode read abundance (log10)” value: 0.0829 for the first, 0.0637 for the second.

“TCGAGTTCTTGGGTTCTAACCTGTTGCCT (site TCGAGTGCTAG)” and “TCGAGTTCTTGGGTTCTAACCTGTTGCCT (site TCGAGTTCTAG)” are within 0.2 log units of each other in “recombinant barcode read abundance (log10)” value: 0.0736 for the first, 0.174 for the second.

“TCGCACACTTGGGTTCTAACCTGTTGCTA (site TCGCACACTTA)” and “TCGCACACTTGGGTTCTAACCTGTTGCTA (site TCGCACTCTTA)” are within 0.2 log units of each other in “recombinant barcode read abundance (log10)” value: 0.148 for the first, 0.0853 for the second.

“TCGCCTGCTTGGGTTCTAACCTGTTGCCT (site TCGCCTACTAG)” and “TCGCCTGCTTGGGTTCTAACCTGTTGCCT (site TCGCCTGCTAG)” are within 0.2 log units of each other in “recombinant barcode read abundance (log10)” value: 0.282 for the first, 0.191 for the second.

“TCGCTAACTTGGGTTCTAACCTGTTGCCT (site GCGCTAACTAG)” and “TCGCTAACTTGGGTTCTAACCTGTTGCCT (site TCGCTAACTAG)” are within 0.2 log units of each other in “recombinant barcode read abundance (log10)” value: 0.145 for the first, 0.322 for the second.

Compared with “TCGGACCCTTGGGTTCTAACCTGTTGCGA (site TCGAACCCTTC)”, “TCGGACCCTTGGGTTCTAACCTGTTGCGA (site TCGCACCCTTC)” is lower in “recombinant barcode read abundance (log10)” value: 1 for the first, 0.12 for the second.

Going from “TCGGACCCTTGGGTTCTAACCTGTTGCGA (site TCGGACCCTTC)” to “TCGGACCCTTGGGTTCTAACCTGTTGCGA (site TCGTACCCTTC)”, the “recombinant barcode read abundance (log10)” value falls from 2.73 to 0.23.

First: TCGGAGTCTTGGGTTCTAACCTGTTGCCG (site TCGGAGTCTCA)
Second: TCGGAGTCTTGGGTTCTAACCTGTTGCCG (site TCGGAGTCTCG)
The “recombinant barcode read abundance (log10)” value of the first is lower: 0.0935 for the first, 1.17 for the second.

Going from “TCGGAGTCTTGGGTTCTAACCTGTTGCGT (site TCGGAGTCTAA)” to “TCGGAGTCTTGGGTTCTAACCTGTTGCGT (site TCGGAGTCTAC)”, the “recombinant barcode read abundance (log10)” value rises from 0.499 to 2.55.

Compared with “TCGGAGTCTTGGGTTCTAACCTGTTGCGT (site TCGGAGTCTAG)”, “TCGGAGTCTTGGGTTCTAACCTGTTGCGT (site TCGGAGTCTAT)” is higher in “recombinant barcode read abundance (log10)” value: 0.969 for the first, 2.39 for the second.
